Results taken from ChEMBL document CHEMBL3885861, “Open TG-GATES”.

Organism: Rattus norvegicus
Assay: Open TG-GATES - Regimen: Daily Repeat
Assay type: toxicity, organism-based, Sprague-Dawley
Design: regimen Daily Repeat, gender Male, age 6 weeks
Settings: in vivo, iv, 1 mg/kg, route intravenous injection, dose level High; for APTT / Bas / Eos / Fbg / Hb / Ht / Lym / MCH / MCHC / MCV / Mono / Neu / PT / Plat / RBC / Ret / WBC: tissue Blood; for KIDNEY_L / KIDNEY_R / KIDNEY_TOTAL: tissue Kidney; for LIVER: tissue Liver; for A/G / ALP / ALT / AST / BUN / CRE / Ca / Cl / DBIL / GLC / IP / K / LDH / Na / PL / RALB / TBIL / TC / TG / TP / gamma-GTP: tissue Plasma

## C[C@@H]1[C@H](O)[C@@H](C)/C=C/C=C/C=C/C=C/C=C/C=C/C=C/[C@H](O[C@@H]2O[C@H](C)[C@@H](O)[C@H](N)[C@@H]2O)C[C@@H]2O[C@](O)(C[C@@H](O)C[C@@H](O)[C@H](O)CC[C@@H](O)C[C@@H](O)CC(=O)O[C@H]1C)C[C@H](O)[C@H]2C(=O)O [AMPHOTERICIN B]
72 h, time 3 day
  TERMINAL_BW: 235.4 g
  APTT: 15.8 s
  Bas: 0%
  Eos: 0.8%
  Fbg: 303.4 mg/dL
  Hb: 13.7 g/dL
  Ht: 39.2%
  Lym: 80.8%
  MCH: 21.3 pg
  MCHC: 34.8%
  MCV: 61.1 fL
  Mono: 2.2%
  Neu: 15.2%
  PT: 12.3 s
  Plat: 136.2 x10_4/uL
  RBC: 643 x10_4/ul
  Ret: 4.2%
  WBC: 106.4 x10_2/uL
  KIDNEY_L: 1 g
  KIDNEY_R: 1 g
  KIDNEY_TOTAL: 2 g
  LIVER: 10.7 g
  A/G: 0.8
  ALP: 1621.8 IU/L
  ALT: 32 IU/L
  AST: 61.2 IU/L
  BUN: 22.6 mg/dL
  CRE: 0.2 mg/dL
  Ca: 10.9 mg/dL
  Cl: 106.4 meq/L
  DBIL: 0.018 mg/dL
  GLC: 174.6 mg/dL
  IP: 7.1 mg/dL
  K: 4.1 meq/L
  LDH: 51.8 IU/L
  Na: 143 meq/L
  PL: 147 mg/dL
  RALB: 2.6 g/dL
  TBIL: 0.05 mg/dL
  TC: 85 mg/dL
  TG: 94.8 mg/dL
  TP: 5.9 g/dL
  gamma-GTP: 1.8 IU/L
[…], time 7 day
  TERMINAL_BW: 266.4 g
  APTT: 17.2 s
  Bas: 0%
  Eos: 1%
  Fbg: 287 mg/dL
  Hb: 13.6 g/dL
  Ht: 39%
  Lym: 78%
  MCH: 20.5 pg
  MCHC: 34.9%
  MCV: 58.6 fL
  Mono: 2.2%
  Neu: 18.6%
  PT: 11.9 s
  Plat: 141.2 x10_4/uL
  RBC: 665.8 x10_4/ul
  Ret: 4.7%
  WBC: 126.3 x10_2/uL
  KIDNEY_L: 1.2 g
  KIDNEY_R: 1.1 g
  KIDNEY_TOTAL: 2.3 g
  LIVER: 12.5 g
  A/G: 0.8
  ALP: 1417.8 IU/L
  ALT: 29.8 IU/L
  AST: 57.2 IU/L
  BUN: 22.4 mg/dL
  CRE: 0.2 mg/dL
  Ca: 11.2 mg/dL
  Cl: 105.2 meq/L
  DBIL: 0.018 mg/dL
  GLC: 177.8 mg/dL
  IP: 6.7 mg/dL
  K: 4.4 meq/L
  LDH: 57.4 IU/L
  Na: 143.2 meq/L
  PL: 145.6 mg/dL
  RALB: 2.6 g/dL
  TBIL: 0.044 mg/dL
  TC: 77 mg/dL
  TG: 138.6 mg/dL
  TP: 6 g/dL
  gamma-GTP: 1.2 IU/L
[…], time 14 day
  TERMINAL_BW: 304.7 g
  APTT: 16.6 s
  Bas: 0.4%
  Eos: 0.8%
  Fbg: 281.6 mg/dL
  Hb: 14.4 g/dL
  Ht: 40.7%
  Lym: 82.8%
  MCH: 20.3 pg
  MCHC: 35.4%
  MCV: 57.2 fL
  Mono: 1.6%
  Neu: 14.2%
  PT: 12.5 s
  Plat: 122.8 x10_4/uL
  RBC: 711.2 x10_4/ul
  Ret: 4.1%
  WBC: 116.3 x10_2/uL
  KIDNEY_L: 1.2 g
  KIDNEY_R: 1.2 g
  KIDNEY_TOTAL: 2.5 g
  LIVER: 12.9 g
  A/G: 0.8
  ALP: 1437.6 IU/L
  ALT: 31.6 IU/L
  AST: 63 IU/L
  BUN: 27.2 mg/dL
  CRE: 0.2 mg/dL
  Ca: 10.8 mg/dL
  Cl: 105 meq/L
  DBIL: 0.016 mg/dL
  GLC: 183.2 mg/dL
  IP: 6.7 mg/dL
  K: 4.6 meq/L
  LDH: 54 IU/L
  Na: 142.8 meq/L
  PL: 149.8 mg/dL
  RALB: 2.6 g/dL
  TBIL: 0.048 mg/dL
  TC: 75.6 mg/dL
  TG: 132.8 mg/dL
  TP: 6 g/dL
  gamma-GTP: 1 IU/L
[…], time 28 day
  TERMINAL_BW: 371.1 g
  APTT: 19.3 s
  Bas: 1%
  Eos: 1%
  Fbg: 322.5 mg/dL
  Hb: 15.1 g/dL
  Ht: 42.9%
  Lym: 80.8%
  MCH: 18.9 pg
  MCHC: 35.2%
  MCV: 53.8 fL
  Mono: 2.2%
  Neu: 14.5%
  PT: 12.9 s
  Plat: 127.8 x10_4/uL
  RBC: 798.8 x10_4/ul
  Ret: 2.8%
  WBC: 135.7 x10_2/uL
  KIDNEY_L: 1.4 g
  KIDNEY_R: 1.3 g
  KIDNEY_TOTAL: 2.7 g
  LIVER: 14.4 g
  A/G: 0.6
  ALP: 1068.2 IU/L
  ALT: 30.2 IU/L
  AST: 60.2 IU/L
  BUN: 26.8 mg/dL
  CRE: 0.2 mg/dL
  Ca: 10.9 mg/dL
  Cl: 106 meq/L
  DBIL: 0.0175 mg/dL
  GLC: 178 mg/dL
  IP: 6.1 mg/dL
  K: 4 meq/L
  LDH: 52.8 IU/L
  Na: 145.2 meq/L
  PL: 128.8 mg/dL
  RALB: 2.6 g/dL
  TBIL: 0.06 mg/dL
  TC: 63.2 mg/dL
  TG: 105 mg/dL
  TP: 6.4 g/dL
  gamma-GTP: 1.2 IU/L
